Results reported in paper PMC11464777, “Approved drugs successfully repurposed against Leishmania based on machine learning predictions” (Frontiers in Cellular and Infection Microbiology, 2024).
Values after ≈ are worked out from the molar mass of the structure shown. Where two headings read alike, the source gives them in different places.

Key:
[1] = test system: Leishmania (Viannia) braziliensis; parameters: method as in Cazorla et al., 2004; conditions: hamsters infected with Leishmania (Viannia) braziliensis, versus Glucantime; ref Cazorla et al., 2004; cited from earlier work
[2] = test system: L. infantum (LV50 and Drep-14) and L. major (Empa-12) promastigotes; experiment: MTT promastigote viability assay, stated across the three strains; type: cell-based, Leishmania infantum, Leishmania major; conditions: 72 h; for Effect on promastigote viability: three strains, at the tested concentrations; for IC50: Leishmania infantum, LV50, Drep-14, Empa-12, MTT, read-out: Promastigotes IC50, span over the three strains
Text: (§1) Three Tunisian laboratory strains already described ([Oualha et al., 2019]), originally isolated from distinct clinical manifestations were used in this study: (i) L. infantum LV50 MHOM/TN/94/LV50) strain originating from a bone marrow of a visceral leishmaniasis patient, (ii) L. infantum Drep-14 (MHOM/TN/96/Drep-14) strain isolated from a lesion of a sporadic cutaneous leishmaniasis patient and (iii) L. major Empa-12 (MHOM/TN/2012/Empa-12) strain isolated from a zoonotic cutaneous leishmaniasis patient. Stocks of these parasites obtained after passage through BALB/c mice were used as previously described ([Oualha et al., 2019]). Thawed cryopreserved parasites were cultured at 22°C in RPMI-1640/Glutamax medium (Gibco BRL, Germany) containing penicillin (100 U/mL) and streptomycin (100 μg/mL) supplemented with 10% heat-inactivated Fetal Bovine Serum (FBS) (Gibco BRL, Germany).
(§2) The effect of the selected compounds on the viability of Leishmania promastigotes was evaluated by a colorimetric MTT (3-(4,5-dimethylthiazol-2yl)-2,5-diphenyl tetrazolium bromide) assay. It consists in the reduction of tetrazolium salt to a […] crystal (blue formazan) by the succinate dehydrogenase activity of mitochondria in living cells, which can be quantified by spectrophotometry. Briefly, 90 μL of promastigotes (5 × 10^5 parasites/well) harvested from the stationary growth phase of each strain were added to a 96-well culture plate and incubated with 10 μL of a range of serial dilutions of the selected compounds in technical replicates (final concentration of 1% DMSO per well) ([Ioset et al., 2009]; [Harigua-Souiai et al., 2018]). […] After 72h of incubation at 22°C, 25 μl of MTT solution (5 mg/mL) was added to each well and incubated at 22°C for 4h. Then, 150 μl of DMSO was added to each well to dissolve the blue formazan and the optical density (OD) was measured at 570 nm with a microplate reader ([…], Labsystems). Promastigotes incubated in complete medium containing 1% DMSO were used as negative control. The standard anti-Leishmania drug, Amphotericin B was used as a positive control. All experiments were performed in two technical replicates and repeated three times in independent experiments. The mean percentage of promastigotes viability was calculated from the Optical Density at 570 nm as follows:
(§3) Promastigote viability (%)= [(ODcompound− ODblank)/(ODnegative control −ODblank)]*100
(§4) Results were expressed as the mean value of the percentage of promastigotes viability ± standard deviation (SD).

[3] = test system: THP-1-derived macrophages; experiment: Cytotoxicity assay towards THP-1-derived macrophages (MTT); type: cell-based, human; conditions: for Cytotoxicity on THP-1-derived macrophages: 24, 48, 72 h
Experimental: (§5) Louis, MO, USA). The PMA-treated THP-1 cells were maintained in this condition for 24 h, followed by a 24 h of rest period after the removal of PMA. […] The cytotoxicity towards THP-1-derived macrophages was assessed after 24, 48 and 72 hours of incubation by MTT assay as described above. […] The percentage of viable cells was calculated from the Optical Density at 570 nm as follows: […]

[4] = as above; type: cell-based, human; conditions: human, THP-1-derived macrophages (PMA-differentiated); for CC50 at 72 h: 72 h of treatment, uninfected cells, MTT; for viability at 72 h, 200 µg/mL: at 200 µg/mL
Experimental: as §5

[5] = test system: L. major Empa-12 promastigotes; experiment: MTT-based promastigote viability assay, L. major Empa-12; type: cell-based; conditions: Leishmania major
Text: as §1, §2, §3, §4

[6] = test system: L. major and L. infantum amastigotes; experiment: Anti-amastigote assay, stated across the three strains; type: cell-based, Leishmania infantum, Leishmania major
Experimental: (§6) THP-1-derived macrophages (5 × 10^4/well) were seeded in each 8-well Labtek slides (Thermo Scientific). Adherent macrophages were obtained as described above, then infected with stationary phase promastigotes of each strain at a ratio 10:1 (10 parasites/macrophage) in RPMI medium containing penicillin (100 U/mL) and streptomycin (100 μg/mL) with 10% fetal bovine serum (Gibco, Brazil) at 37°C in 5% CO2 for 24 h. […] Non-infected control cells were incubated in a supplemented RPMI medium containing 1% DMSO. After 72h of incubation, cells were fixed and stained using May-Grunwald-Giemsa staining with RAL 555 Kit (RAL DIAGNOSTICS, France), following the manufacturer’s instructions. The percentage of infected cells and the total number of internalized parasites per 100 macrophages were determined under immersion oil (magnification of 1000X) using light microscopy. The percentage of amastigotes viability was expressed as the percentage of total number of internalized parasites within treated cells relative to the total number of internalized parasites within control cells treated with 1% DMSO, and calculated as follows:
(§7) Relative amastigote viability (%) = [(number of amastigotes/100 treated cells)/(number of amastigotes/100 treated cells with1% DMSO)] * 100
(§8) The relative percentage of amastigote viability was evaluated to calculate half inhibitory concentrations (IC50). The mean IC50 values were determined by plotting the curves of the logarithm of compound concentrations versus the relative amastigote viability of three independent experiments performed in two technical replicates for each compound fitted into a nonlinear regression model, using GraphPad Prism version 8.0.1. Selectivity Index (SI) values were calculated as the ratio between cytotoxicity and activity against amastigotes and determined for each compound as follows: SI= CC50/IC50.

[7] = test system: L. major Empa-12 intracellular amastigotes; experiment: Anti-amastigote assay in THP-1-derived macrophages, L. major Empa-12; type: cell-based, Leishmania major; conditions: for Selectivity Index (SI): CC50 THP-1 / IC50 amastigotes Empa-12, 72 h; for IC50: Leishmania major, Macrophage, Empa-12, intramacrophage, 72 h
Experimental: as §6, §7, §8

[8] = test system: L. infantum LV50 intracellular amastigotes; experiment: Anti-amastigote assay in THP-1-derived macrophages, L. infantum LV50; type: cell-based, Leishmania infantum; conditions: for Selectivity Index (SI): CC50 THP-1 / IC50 amastigotes LV50, 72 h; for IC50: Leishmania infantum, Macrophage, LV50, intramacrophage, 72 h
Experimental: as §6, §7, §8

[9] = test system: L. infantum LV50 promastigotes; experiment: MTT-based promastigote viability assay, L. infantum LV50; type: cell-based; conditions: Leishmania infantum
Text: as §1, §2, §3, §4

[10] = test system: L. infantum Drep-14 promastigotes; experiment: microbe, parasite or virus in culture; type: cell-based; conditions: Leishmania infantum
Text: as §1, §2, §3, §4

[11] = test system: L. infantum Drep-14 intracellular amastigotes; experiment: Anti-amastigote assay in THP-1-derived macrophages, L. infantum Drep-14; type: cell-based, Leishmania infantum; conditions: for Selectivity Index (SI): CC50 THP-1 / IC50 amastigotes Drep-14, 72 h; for IC50: Leishmania infantum, Macrophage, Drep-14, intramacrophage, 72 h
Experimental: as §6, §7, §8

[12] = read-out: THP-1-derived macrophages CC50
[13] = read-out: THP-1-derived macrophages CC50 (in brackets) (converted)
[14] = Empa-12, 72 h, MTT, read-out: Promastigotes IC50
[15] = Empa-12, 72 h, MTT, read-out: Promastigotes IC50 (in brackets) (converted)
[16] = read-out: Amastigotes IC50 (in brackets) (converted)
[17] = LV50, 72 h, MTT, read-out: Promastigotes IC50
[18] = LV50, 72 h, MTT, read-out: Promastigotes IC50 (in brackets) (converted)
[19] = 72 h, read-out: Promastigotes IC50
[20] = 72 h, read-out: Promastigotes IC50 (in brackets)
[21] = 72 h, LV50, Drep-14, Empa-12; intramacrophage, 72 h; read-out: Amastigotes IC50, span over the three strains

Structure (SMILES)	Effect on promastigote viability [2]	Cytotoxicity on THP-1-derived macrophages [3]	CC50 at 72 h [4, 12]	CC50 at 72 h [4, 13]	IC50 [5, 14]	IC50 [5, 15]	Selectivity Index (SI) [7]	IC50 ([7]; read-out: Amastigotes IC50)	IC50 [7, 16]	Selectivity Index (SI) [8]	IC50 ([8]; read-out: Amastigotes IC50)	IC50 [8, 16]	IC50 [9, 17]	IC50 [9, 18]	IC50 [2]	IC50 [10, 19]	IC50 [10, 20]	Selectivity Index (SI) [11]	IC50 ([11]; read-out: Amastigotes IC50)	IC50 [11, 16]	further results
CCN(CC)CCOC(=O)c1ccc(N)cc1 [Procaine]																					Efficacy of intralesional treatment in hamsters [1]: lower efficacy
C=C(CC)C(=O)c1ccc(OCC(=O)O)c(Cl)c1Cl [Ethacrynic acid]	no effectiveness																				
NS(=O)(=O)c1cc2c(cc1Cl)N=C(CSCc1ccccc1)NS2(=O)=O [Benzthiazide]	no effectiveness																				
C[C@@H]1[C@H](O)[C@@H](C)/C=C/C=C/C=C/C=C/C=C/C=C/C=C/[C@H](O[C@@H]2O[C@H](C)[C@@H](O)[C@H](N)[C@@H]2O)C[C@@H]2O[C@](O)(C[C@@H](O)C[C@@H](O)[C@H](O)CC[C@@H](O)C[C@@H](O)CC(=O)O[C@H]1C)C[C@H](O)[C@H]2C(=O)O [Amphotericin B]		no cytotoxic effect	> 5 µg/mL	> 5.41 µM	0.2 ± 0.01 µg/mL	0.22 µM	> 100.00	0.05 ± 0.005 µg/mL	0.054 µM	> 166.66	0.03 ± 0.004 µg/mL	0.032 µM	0.15 ± 0.01 µg/mL	0.16 µM	0.15 to 0.2 µg/mL (≈ 0.162 to 0.216 µM)	0.2 ± 0.004 µg/mL	0.22 µM	> 125.00	0.04 ± 0.006 µg/mL	0.043 µM	IC50 ([6]; LV50, Drep-14, Empa-12; intramacrophage, 72 h; read-out: Amastigotes IC50, span over the three strains): 0.03 to 0.05 µg/mL (≈ 0.0325 to 0.0541 µM)
CNC[C@H](O)c1cccc(O)c1 [Phenylephrine]	dose-dependent decrease of parasite viability	no significant cytotoxicity	> 200 µg/mL	> 1200 µM	> 200 µg/mL	> 1200 µM	> 2.99	66.8 ± 7.28 µg/mL	400 ± 260 µM	> 5.68	35.2 ± 4.86 µg/mL	211 ± 174 µM	> 200 µg/mL	> 1200 µM	> 200 µg/mL	> 200 µg/mL	> 1200 µM	> 4.96	40.2 ± 3.15 µg/mL	241 ± 113 µM	viability at 72 h, 200 µg/mL ([4]; read-out: Macrophage viability): 90 to 100%; IC50 ([5]; Empa-12, extrapolated beyond tested range (200 µg/mL), GraphPad, read-out: Promastigotes IC50 estimated through extrapolation): 266 ± 79.5 µg/mL; IC50 ([9]; LV50, extrapolated beyond tested range (200 µg/mL), GraphPad, read-out: Promastigotes IC50 estimated through extrapolation): 219 ± 25.5 µg/mL; IC50 ([10]; read-out: Promastigotes IC50 estimated through extrapolation): 275 ± 36.6 µg/mL
CCCC(=O)Nc1ccc(OCC(O)CNC(C)C)c(C(C)=O)c1 (stereo not drawn) [Acebutolol]	dose-dependent decrease of parasite viability	no significant cytotoxicity	> 200 µg/mL	> 536 µM	103 ± 10.9 µg/mL	276 µM	> 8.98	22.3 ± 1.59 µg/mL	59.8 µM	> 12.73	15.7 ± 2.75 µg/mL	42.1 µM	146 ± 16.4 µg/mL	390 µM	69.3 to 146 µg/mL (≈ 206 to 433 µM)	69.3 ± 5.7 µg/mL	186 µM	> 14.45	13.8 ± 1.41 µg/mL	37.1 µM	viability at 72 h, 200 µg/mL ([4]; read-out: Macrophage viability): 90 to 100%; IC50 [6, 21]: 13.8 to 66.8 µg/mL (≈ 41.1 to 199 µM)
CCCSc1ccc2nc(NC(=O)OC)[nH]c2c1 [Albendazole]	no effectiveness																				
CCCNC(C)C(=O)Nc1ccccc1C (stereo not drawn) [Prilocaine]	dose-dependent decrease of parasite viability	no significant cytotoxicity	> 200 µg/mL	> 1820 µM	33.1 ± 2.3 µg/mL	150 µM	> 13.02	30.7 ± 2.2 µg/mL	139 µM	> 15.25	26.2 ± 3.14 µg/mL	119 µM	45.8 ± 2.46 µg/mL	208 µM	33.1 to 45.8 µg/mL (≈ 150 to 208 µM)	34.8 ± 3.22 µg/mL	158 µM	> 13.14	30.4 ± 2.3 µg/mL	138 µM	Concentration at which cytotoxic effects start ([3]; 72 h of incubation): 400 µg/mL; viability at 72 h, 200 µg/mL ([4]; read-out: Macrophage viability): 90 to 100%; viability ([4]; at the IC50 value on the promastigotes, read-out: Macrophage viability): 90 to 100%; IC50 [6, 21]: 13.8 to 66.8 µg/mL (≈ 62.8 to 303 µM)
Nc1nc(O)c2ncn(COC(CO)CO)c2n1 [Ganciclovir]	no effectiveness																				
CCc1cc(C(N)=S)ccn1 [Ethionamide]	no effectiveness																				
